Laboratory results from ChEMBL document CHEMBL5380773, “Novel Feleucin-K3-Derived Peptides Modified with Sulfono-γ-AA Building Blocks Targeting Pseudomonas aeruginosa and Methicillin-Resistant Staphylococcus aureus Infections” (J Med Chem, 2023).
Converted amounts (≈) assume the structure as drawn. The source made the active and inactive calls. No cut-off for these calls is given here. Numbered stars: 1 amine (or outer) side, 2 acyl side, 3 side chain; on linkers, the order of the positions; unused ones are H or OH. Square brackets hold non-standard residues; d marks the D form. Peptide text beside a SMILES is read from it. * marks the point of attachment. X2 = CC(C)C[C@H](N)CN(CC(=O)[*:2])[*:1]; X1 = O=S(=O)(c1ccc(I)cc1)*

Assays:
Staphylococcus aureus [1] = test: Antimicrobial activity against methicillin resistant Staphylococcus aureus ATCC 33591 infected in BALB/c mouse assessed as biofilm eradication at 0.25 to 1 mg/kg infected with bacteria for 2 hrs prior to compound addition on 1, 24 and 48 hrs and measured after 72 hrs by H and E staining based assay; assay type: functional, organism-based; conditions: dose 0.25-1 mg/kg
DNA [2] = test: Binding affinity to Pseudomonas aeruginosa DNA at 8 times MIC incubated for 30 mins; assay type: nucleic-acid assay
Pseudomonas aeruginosa [3] = test: Antibiofilm activity against Pseudomonas aeruginosa ATCC 27853 assessed as reduction in biofilm thickness at 1 times MBIC90 incubated for 24 hrs by confocal laser scanning microscopy analysis (reference value: 90 micrometer); assay type: functional
Staphylococcus aureus [4] = test: Antimicrobial activity against Staphylococcus aureus in presence of LPS/LTA; assay type: functional
Cell membrane [5] = test: Induction of membrane disruption in methicillin resistant Staphylococcus aureus ATCC 33591 assessed as cell lysis at high concentration incubated for 24 hrs by SEM analysis; assay type: subcellular
Pseudomonas aeruginosa [6] = test: Antibiofilm activity against Pseudomonas aeruginosa ATCC 27853 assessed as reduction in biofilm structures at MBIC90 by scanning electron microscopic analysis; assay type: functional, organism-based
Cell membrane [7] = test: Induction of membrane disruption in Pseudomonas aeruginosa ATCC 27853 assessed as irregular atrophy at low concentration incubated for 24 hrs by SEM analysis; assay type: subcellular
Pseudomonas aeruginosa [8] = test: Induction of ROS generation in Pseudomonas aeruginosa ATCC 27853 by DCFH-DA dye based fluorescence assay; assay type: functional, organism-based; conditions: TDE = time-dependent effect
Pseudomonas aeruginosa [9] = test: Antimicrobial activity against Pseudomonas aeruginosa ATCC 27853 infected in C57BL/6J mouse assessed as reduction in lung bacterial load at 2.5 mg/kg, ip measured after 72 hrs […] (reference value: 6.4 10^3CFU/mg); assay type: functional
Staphylococcus aureus [10] = test: Antimicrobial activity against methicillin resistant Staphylococcus aureus ATCC 33591 infected in skin wound mouse model assessed as reduction in inflammatory infiltration at […] by H and E staining based assay; assay type: functional, organism-based; conditions: dose lower 10.0 mg/kg
Cell membrane [11] = test: Induction of membrane disruption in methicillin resistant Staphylococcus aureus ATCC 33591 assessed as membrane shrinkage at low concentration incubated for 24 hrs by SEM analysis; assay type: subcellular
Cell membrane [12] = test: Induction of cytoplasmic membrane depolarization in methicillin resistant Staphylococcus aureus ATCC 33591 by DiSC35 dye based fluorescence method
Pseudomonas aeruginosa [13] = test: Induction of protein leakage in Pseudomonas aeruginosa ATCC 27853; assay type: functional, organism-based; conditions: TDE = time-dependent effect
Cell membrane [14] = test: Induction of membrane disruption in Pseudomonas aeruginosa ATCC 27853 assessed as membrane collapse at 2 to 4 times MIC incubated for 24 hrs by TEM analysis; assay type: subcellular
Cell membrane [15] = test: Induction of membrane disruption in Pseudomonas aeruginosa ATCC 27853 assessed as separation of outer membrane at 2 to 4 times MIC incubated for 24 hrs by TEM analysis; assay type: subcellular
Staphylococcus aureus [16] = test: Antimicrobial activity against methicillin resistant Staphylococcus aureus ATCC 33591 infected in skin wound mouse model assessed as reduction in edema at 1 to 4 mg/kg measured on day 3 and 7 by H and E staining based assay; assay type: functional, organism-based; conditions: dose 1-4 mg/kg, time 3-7 day
Cell membrane [17] = test: Induction of membrane disruption in Pseudomonas aeruginosa ATCC 27853 assessed as membrane shrinkage at low concentration incubated for 24 hrs by SEM analysis; assay type: subcellular
Cell membrane [18] = test: Induction of outer membrane disruption in Pseudomonas aeruginosa in presence of FeCl3 by NPN uptake assay; assay type: subcellular
Pseudomonas aeruginosa [19] = test: Bactericidal activity against Pseudomonas aeruginosa ATCC 27853 at 4 times MIC after 2 to 6 hrs by time kill assay; assay type: functional, organism-based; conditions: time 2-6 hrs
Pseudomonas aeruginosa [20] = test: Induction of resistant development in Pseudomonas aeruginosa ATCC 27853 at sub-MIC after 20 days; assay type: functional, organism-based; conditions: time 20.0 day
Staphylococcus aureus [21] = test: Antimicrobial activity against methicillin resistant Staphylococcus aureus ATCC 33591 infected in skin wound mouse model assessed as wound healing at 0.25 mg/kg measured upto 10 days by H and E staining based assay; assay type: functional, organism-based; conditions: time <= 10.0 day
Pseudomonas aeruginosa [22] = test: Antimicrobial activity against Pseudomonas aeruginosa ATCC 27853 infected in C57BL/6J mouse assessed as reduction in IL-1beta at 2.5 mg/kg, ip measured after 72 hrs […]; assay type: functional, organism-based
Cell membrane [23] = test: Induction of membrane disruption in Pseudomonas aeruginosa ATCC 27853 assessed as cytoplasmic leakage at 2 to 4 times MIC incubated for 24 hrs by TEM analysis; assay type: subcellular
[24] = test system: Staphylococcus epidermidis; test: Antibiofilm activity against Staphylococcus epidermidis ATCC 12228 at 4 to 8 ug/ml incubated for 24 hrs by crystal violet staining based microplate reader analysis; assay type: functional, organism-based; conditions: dose 4-8 µg/ml
Staphylococcus aureus [25] = test: Antimicrobial activity against methicillin resistant Staphylococcus aureus ATCC 33591 infected in skin wound mouse model assessed as reduction in skin damage at 0.25 mg/kg measured upto 10 days by H and E staining based assay; assay type: functional, organism-based; conditions: time <= 10.0 day
Cell membrane [26] = test: Induction of membrane disruption in Pseudomonas aeruginosa ATCC 27853 assessed as membrane collapse at high concentration incubated for 24 hrs by SEM analysis; assay type: subcellular
Cell membrane [27] = test: Induction of membrane disruption in Pseudomonas aeruginosa ATCC 27853 assessed as membrane blebbing at low concentration incubated for 24 hrs by SEM analysis; assay type: subcellular
Pseudomonas aeruginosa [28] = test: Induction of DNA leakage in Pseudomonas aeruginosa ATCC 27853; assay type: functional, organism-based; conditions: TDE = time-dependent effect
Escherichia coli = test: Bactericidal activity against Escherichia coli ATCC 25922 at 1 to 2 times MIC after 2 to 3 hrs by time kill assay; assay type: functional, organism-based; conditions: time 2-3 hrs
[29] = test system: Staphylococcus epidermidis; test: Antibiofilm activity against Staphylococcus epidermidis ATCC 12228 at 2 to 4 ug/ml incubated for 24 hrs by crystal violet staining based microplate reader analysis; assay type: functional; conditions: dose 2-4 µg/ml, at 2 to 4 µg/mL
DNA [30] = test: Binding affinity to methicillin resistant Staphylococcus aureus DNA at 8 times MIC incubated for 30 mins; assay type: nucleic-acid assay
Pseudomonas aeruginosa [31] = test: Antimicrobial activity against Pseudomonas aeruginosa ATCC 27853 incubated for 18 hrs by microdilution method; assay type: functional
Cell membrane [32] = test: Induction of membrane disruption in Pseudomonas aeruginosa ATCC 27853 assessed as cell lysis at high concentration incubated for 24 hrs by SEM analysis; assay type: subcellular
Staphylococcus aureus [33] = test: Antibiofilm activity against methicillin resistant Staphylococcus aureus ATCC 33591 assessed as reduction in biofilm thickness; assay type: functional, organism-based
Pseudomonas aeruginosa [34] = test: Antibiofilm activity against Pseudomonas aeruginosa ATCC 27853 assessed as reduction in biofilm numbers at 1 times MBIC90 incubated for 24 hrs by confocal laser scanning microscopy analysis; assay type: functional, organism-based
Staphylococcus aureus [35] = test: Antimicrobial activity against methicillin resistant Staphylococcus aureus ATCC 33591 infected in BALB/c mouse assessed as reduction in sessile bacteria attached on catheters surface at 0.25 to 1 mg/kg infected with bacteria for 2 hrs prior to compound addition on 1, 24 and 48 hrs and measured after 72 hrs […]; assay type: functional, organism-based; conditions: dose 0.25-1 mg/kg
Cell membrane [36] = test: Induction of membrane disruption in methicillin resistant Staphylococcus aureus ATCC 33591 assessed as membrane collapse at high concentration incubated for 24 hrs by SEM analysis; assay type: subcellular
Pseudomonas aeruginosa [37] = test: Antibiofilm activity against Pseudomonas aeruginosa ATCC 27853 assessed as reduction in biofilm thickness at 2 times MBIC90 incubated for 24 hrs by confocal laser scanning microscopy analysis; assay type: functional

CC(C)C[C@H](N)CN(CC(=O)N[C@@H](CCCCN)C(=O)N[C@@H](CC(C)C)C(=O)N[C@@H](CC(C)C)C(=O)N[C@@H](CCCCN)C(=O)N[C@@H](CCCCN)C(=O)N[C@@H](CC(C)C)C(=O)N[C@@H](CC(C)C)C(N)=O)S(=O)(=O)c1ccc(I)cc1 (X1-[X2]KLLKKLL-NH2)
Activity (Staphylococcus aureus [1]): Active | Activity (DNA [2]): Active | Activity (Pseudomonas aeruginosa [3]): 20 um | MIC (Staphylococcus aureus [4]): ≥ 16 µg/mL | Activity (Cell membrane [5]): Active | Activity (Pseudomonas aeruginosa [6]): Active | Activity (Cell membrane [7]): Active | Activity (Pseudomonas aeruginosa [8]): Tde | Activity (Pseudomonas aeruginosa [9]): 3 10^3CFU/mg | Activity (Staphylococcus aureus [10]): Active | Activity (Cell membrane [11]): Active | Activity (Cell membrane [12]): Active | Activity (Pseudomonas aeruginosa [13]): Tde | Activity (Cell membrane [14]): Active | Activity (Cell membrane [15]): Active | Activity (Staphylococcus aureus [16]): Active | Activity (Cell membrane [17]): Active | Activity (Cell membrane [18]): Active | Activity (Pseudomonas aeruginosa [19]): Active | Activity (Pseudomonas aeruginosa [20]): Active | Activity (Staphylococcus aureus [21]): Active | Activity (Pseudomonas aeruginosa [22]): Active | Activity (Cell membrane [23]): Active | Activity [24]: Active | Activity (Staphylococcus aureus [25]): Active | Activity (Cell membrane [26]): Active | Activity (Cell membrane [27]): Active | Activity (Pseudomonas aeruginosa [28]): Tde | Activity (Escherichia coli): Active | Activity [29]: 50% | Activity (DNA [30]): Active | MIC (Pseudomonas aeruginosa [31]): 3 µg/mL (≈ 2.35 µM) | Activity (Cell membrane [32]): Active | Activity (Staphylococcus aureus [33]): Active | Activity (Pseudomonas aeruginosa [34]): Active | Activity (Staphylococcus aureus [35]): Active | Activity (Cell membrane [36]): Active | Activity (Pseudomonas aeruginosa [37]): 60 um
